Measured values reported in PubChem BioAssay AID1919006 (Molecular Pharmacology Branch, DTP, NCI, 2023).

Test system: 885512-296-R-J2-PDC complex spheroid growth, % test/control
Assay: Anticancer human tumor 885512-296-R-J2-PDC patient-derived breast carcinoma cell line growth inhibition [AhR]
Details: for IC50: curve of first compound; for viability, T/C: stronger effect = lower value
Description: Multicellular complex tumor spheroid response to aryl hydrocarbon receptor antagonists in combination with a variety of drugs and investigational agents in selected tumor cell lines
The current study was undertaken to assess response to aryl hydrocarbon receptor antagonists in combination with standard-of-care drugs and investigational agents in solid tumor complex spheroid models. Complex spheroids include a stromal component modeled by human endothelial cells (HUVEC) and fibroblasts modeled by human mesenchymal stem cells (MSCs). The concentration ranges selected for each drug and investigational agent were based upon clinically achievable concentrations if the clinical Cmax of the agent was known.
Compounds. The drugs and investigational agents: BAY 2416964 (NSC825713), GNF351 (NSC835774), CH-223191 (NSC835775), CPI-455 (NSC825282), aza-TdCyd (NSC777586), decitabine (NSC127716), belinostat (NSC758774), entinostat (NSC756642), pevonedistat (NSC761192), tazemetostat (NSC777109), talazoparib (NSC765396), olaparib (NSC753686), selinexor (NSC780203), nedisertib (M3814, NSC802822), bortezomib (NSC756655), venetoclax (NSC766270), doxorubicin (NSC123127), elimusertib (BAY189344, NSC800525), ceralasertib (AZD6738, NSC777638), TAK-243 (NSC785004), alisertib (NSC759677), etoposide (NSC141540), topotecan (NSC609699), eribulin (NSC707389), gemcitabine (NSC613327), carboplatin (NSC241240), cisplatin (NSC119875), and SN-38 (NSC673596) were obtained from the National Cancer Institute (NCI) Developmental Therapeutics Program Chemical Repository (32). The FDA-approved anticancer drug set is available from the Developmental Therapeutics Program at https://dtp.cancer.gov/organization/dscb/obtaining/available plates.htm. […] The stock solutions were prepared in dimethyl sulfoxide (DMSO, Sigma-Aldrich, St. Louis, MO, cat. D2650), except for the platinum compounds which were prepared in saline (Quality Biological, Gaithersburg, MD, cat. 114-055-101), at 800-fold the tested concentration and stored at -70 degrees C prior to their use. All drugs and investigational agents were tested over a range starting from a high concentration at or near the clinical Cmax and decreasing in half-log increments. If the clinical Cmax for an agent had not been determined, the highest concentration tested was 10 microM (Table 1).
Cell Culture. All cells were maintained in an incubator at 37 degrees C and 5% CO2 with 95% humidity. The PDC lines were cultured according to standard operating procedures established by the NCI PDMR (https://pdmr.cancer.gov). Briefly, all PDCs were thawed and cultured in Matrigel-coated flasks prepared with a working solution of 1X Ham's F-12 nutrient mix, without supplementation (Invitrogen, Waltham, MA, cat. 11765054), 100 U/mL penicillin-streptomycin (Invitrogen, cat. 15140122), and 2.5% Matrigel (Corning Inc., Corning, NY, cat. 354248) for the first three passages. All PDCs were cultured in complete DMEM/F-12 media containing advanced DMEM/F-12 (Invitrogen, cat. 12634028), 4.9% defined fetal bovine serum, heat inactivated (HyClone Laboratories Inc., Logan, UT, cat. SH30070.03HI), 389 ng/mL hydrocortisone (Sigma-Aldrich, cat. H4001), 9.7 ng/mL human EGF recombinant protein (Invitrogen, cat. PHG0313), 23.4 microg/mL adenine (Sigma-Aldrich, cat. A2786), 97.3 U/mL penicillin-streptomycin (Invitrogen, cat. 15140122), 1.9 mM L-glutamine (Invitrogen, cat. 25030081), and 9.7 microM Y-27632 dihydrochloride (Tocris Bioscience, Bristol, United Kingdom, cat. 1254). The PDCs were cultured in complete DMEM/F12 media without 10 microM Y-27632 dihydrochloride for at least two passages prior to the screen. The established cell lines NCI-H1341 and […] were cultured in DMEM/F-12, HEPES (Invitrogen, cat. 11330032), 5% defined fetal bovine serum (HyClone Laboratories Inc., cat. SH30070.03), ITS premix universal culture supplement [insulin (5 microg/mL), transferrin (5 microg/mL), and selenious acid (5 ng/mL)] […]

[1] = second compound 0.1 µM, first compound 0.00316 µM
[2] = second compound 0.1 µM, first compound 0.01 µM
[3] = second compound 0.1 µM, first compound 0.0316 µM
[4] = second compound 0.1 µM, first compound 0.1 µM
[5] = second compound 0.316 µM, first compound 0.00316 µM
[6] = second compound 0.316 µM, first compound 0.01 µM
[7] = second compound 0.316 µM, first compound 0.0316 µM
[8] = second compound 0.316 µM, first compound 0.1 µM
[9] = second compound 1 µM, first compound 0.00316 µM
[10] = second compound 1 µM, first compound 0.01 µM
[11] = second compound 1 µM, first compound 0.0316 µM
[12] = second compound 1 µM, first compound 0.1 µM
[13] = second compound 3.16 µM, first compound 0.00316 µM
[14] = second compound 3.16 µM, first compound 0.01 µM
[15] = second compound 3.16 µM, first compound 0.0316 µM
[16] = second compound 3.16 µM, first compound 0.1 µM
[17] = second compound 10 µM, first compound 0.00316 µM
[18] = second compound 10 µM, first compound 0.01 µM
[19] = second compound 10 µM, first compound 0.0316 µM
[20] = second compound 10 µM, first compound 0.1 µM
[21] = second compound 0.1 µM, first compound 0.316 µM
[22] = second compound 0.1 µM, first compound 1 µM
[23] = second compound 0.1 µM, first compound 3.16 µM
[24] = second compound 0.1 µM, first compound 10 µM
[25] = second compound 0.316 µM, first compound 0.316 µM
[26] = second compound 0.316 µM, first compound 1 µM
[27] = second compound 0.316 µM, first compound 3.16 µM
[28] = second compound 0.316 µM, first compound 10 µM
[29] = second compound 1 µM, first compound 0.316 µM
[30] = second compound 1 µM, first compound 1 µM
[31] = second compound 1 µM, first compound 3.16 µM
[32] = second compound 1 µM, first compound 10 µM
[33] = second compound 3.16 µM, first compound 0.316 µM
[34] = second compound 3.16 µM, first compound 1 µM
[35] = second compound 3.16 µM, first compound 3.16 µM
[36] = second compound 3.16 µM, first compound 10 µM
[37] = second compound 10 µM, first compound 0.316 µM
[38] = second compound 10 µM, first compound 1 µM
[39] = second compound 10 µM, first compound 3.16 µM
[40] = second compound 10 µM, first compound 10 µM
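Further: spheroids exposed to compounds for seven days.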

IC50 (second compound 0.1 µM) [nM]	IC50 (second compound 0.316 µM) [nM]	IC50 (second compound 1 µM) [nM]	IC50 (second compound 3.16 µM) [nM]	IC50 (second compound 10 µM) [nM]	SMILES	viability, T/C [3] [%]	viability, T/C [4] [%]	viability, T/C [7] [%]	viability, T/C [8] [%]	viability, T/C [11] [%]	viability, T/C [12] [%]	viability, T/C [15] [%]	viability, T/C [16] [%]	viability, T/C [19] [%]	viability, T/C [20] [%]	viability, T/C [21] [%]	viability, T/C [22] [%]	viability, T/C [25] [%]	viability, T/C [26] [%]	viability, T/C [29] [%]	further results
11.4	11.7	10.7	7.84	8.12	CC[C@@]1(O)C(=O)OCc2c1cc1n(c2=O)Cc2cc3c(CN(C)C)c(O)ccc3nc2-1 + CC(CO)NC(=O)c1cc(-c2ccc(Cl)cc2)nn(-c2cnn(C)c2)c1=O	8.77	4.56	7.83	5.61	10	6.33	10.9	4.27	10	7.97	–	–	–	–	–	viability, T/C (second compound 0.1 µM, first compound 0.000316 µM): 104%; viability, T/C (second compound 0.1 µM, first compound 0.001 µM): 107%; viability, T/C [1]: 87.9%; viability, T/C [2]: 58.3%; viability, T/C (second compound 0.316 µM, first compound 0.000316 µM): 92.6%; viability, T/C (second compound 0.316 µM, first compound 0.001 µM): 94.5%; viability, T/C [5]: 87.9%; viability, T/C [6]: 57%; viability, T/C (second compound 1 µM, first compound 0.000316 µM): 110%; viability, T/C (second compound 1 µM, first compound 0.001 µM): 107%; viability, T/C [9]: 92.8%; viability, T/C [10]: 54.5%; viability, T/C (second compound 3.16 µM, first compound 0.000316 µM): 117%; viability, T/C (second compound 3.16 µM, first compound 0.001 µM): 106%; viability, T/C [13]: 81.4%; viability, T/C [14]: 43%; viability, T/C (second compound 10 µM, first compound 0.000316 µM): 89.4%; viability, T/C (second compound 10 µM, first compound 0.001 µM): 93%; viability, T/C [17]: 75.1%; viability, T/C [18]: 46.2%
771	694	671	490	310	COc1cc(C2c3cc4c(cc3C(OC3OC5COC(C)OC5C(O)C3O)C3COC(=O)C23)OCO4)cc(OC)c1O (stereo not given) + CC(CO)NC(=O)c1cc(-c2ccc(Cl)cc2)nn(-c2cnn(C)c2)c1=O	102	106	96.5	89.2	101	103	110	97.6	91.5	89.1	85.9	39.8	74.8	39.9	81.6	viability, T/C [23]: 10.2%; viability, T/C [24]: 7.1%; viability, T/C [27]: 9.03%; viability, T/C [28]: 7.53%; viability, T/C [30]: 33.3%; viability, T/C [31]: 10.9%; viability, T/C [32]: 8.44%; viability, T/C [33]: 68.4%; viability, T/C [34]: 20.8%; viability, T/C [35]: 12.2%; viability, T/C [36]: 7.27%; viability, T/C [37]: 48.7%; viability, T/C [38]: 17.7%; viability, T/C [39]: 13.8%; viability, T/C [40]: 9.69%
< 31.6	< 31.6	< 31.6	< 31.6	< 31.6	COc1cccc2c1C(=O)c1c(O)c3c(c(O)c1C2=O)CC(O)(C(=O)CO)CC3OC1CC(N)C(O)C(C)O1 (stereo not given) + CC(CO)NC(=O)c1cc(-c2ccc(Cl)cc2)nn(-c2cnn(C)c2)c1=O	26.3	15.5	21.1	14.9	24.6	14.6	21.3	21.2	15.4	19.3	6.77	0.48	7.09	0.26	6.76	viability, T/C [23]: 0.93%; viability, T/C [24]: 0.78%; viability, T/C [27]: 1.12%; viability, T/C [28]: 0.78%; viability, T/C [30]: 0.2%; viability, T/C [31]: 1.11%; viability, T/C [32]: 1.04%; viability, T/C [33]: 3.93%; viability, T/C [34]: 0.22%; viability, T/C [35]: 0.98%; viability, T/C [36]: 0.67%; viability, T/C [37]: 3.22%; viability, T/C [38]: 0.46%; viability, T/C [39]: 0.54%; viability, T/C [40]: 0.83%
793	892	878	> 1000	> 1000	Nc1ncn(C2CC(O)C(CO)O2)c(=O)n1 (stereo not given) + CC(CO)NC(=O)c1cc(-c2ccc(Cl)cc2)nn(-c2cnn(C)c2)c1=O	85.5	89	91.5	101	90.5	92.9	82.7	78.8	84.1	79.7	76.3	43	80.8	46.6	77.7	viability, T/C [1]: 94.9%; viability, T/C [2]: 94.5%; viability, T/C [5]: 81.8%; viability, T/C [6]: 88.4%; viability, T/C [9]: 95.4%; viability, T/C [10]: 104%; viability, T/C [30]: 46%; viability, T/C [13]: 97.8%; viability, T/C [14]: 95%; viability, T/C [33]: 88.9%; viability, T/C [34]: 56.4%; viability, T/C [17]: 88.9%; viability, T/C [18]: 92.5%; viability, T/C [37]: 82.3%; viability, T/C [38]: 62.1%
